Results reported in publication PMC9917560, “Design, Synthesis and Antimicrobial Evaluation of New N-(1-Hydroxy-1,3-dihydrobenzo[c][1,2]oxaborol-6-yl)(hetero)aryl-2-carboxamides as Potential Inhibitors of Mycobacterial Leucyl-tRNA Synthetase” (International Journal of Molecular Sciences, 2023).
Converted amounts (≈) assume the structure as drawn. Where two headings read alike, the source gives them in different places.

Key:
[1] = test system: Mycobacterium tuberculosis H37Ra ITM-M006710 (ATCC 9431); experiment: Antimycobacterial microdilution (resazurin) vs Mtb H37Ra; type: cell-based
[2] = test system: Mycobacterium tuberculosis H37Rv CNCTC My 331/88 (ATCC 27294); experiment: Microplate Alamar Blue assay vs Mtb H37Rv; type: cell-based; conditions: Mycobacterium tuberculosis
[3] = test system: Mycobacterium kansasii DSM 44,162 (ATCC 12478); experiment: Antimycobacterial microdilution (resazurin) vs M. kansasii; type: cell-based; conditions: read-out: MIC M. kansasii
[4] = test system: Mycobacterium avium DSM 44,156 (ATCC 25291); experiment: Antimycobacterial microdilution (resazurin) vs M. avium; type: cell-based; conditions: Middlebrook 7H9, resazurin, read-out: MIC M. avium
[5] = test system: Mycolicibacterium aurum DSM 43,999 (ATCC 23366); experiment: Antimycobacterial microdilution (resazurin) vs M. aurum; type: cell-based; conditions: Middlebrook 7H9, resazurin, read-out: MIC M. aurum
[6] = test system: Mycolicibacterium smegmatis DSM 43,465 (ATCC 607); experiment: Antimycobacterial microdilution (resazurin) vs M. smegmatis; type: cell-based; conditions: Middlebrook 7H9, resazurin, read-out: MIC M. smeg.
[7] = test system: Staphylococcus aureus subsp. aureus CCM 4223 (ATCC 29213); experiment: Antibacterial microdilution broth (EUCAST); type: cell-based; conditions: read-out: MIC Staphylococcus aureus subsp. aureus
[8] = test system: methicillin-resistant Staphylococcus aureus subsp. aureus (MRSA) CCM 4750 (ATCC 43300); experiment: microbe, parasite or virus in culture; type: cell-based; conditions: read-out: MIC Methicillin-resistant Staphylococcus aureus subsp. aureus
[9] = test system: Staphylococcus epidermidis CCM 4418 (ATCC 12228); experiment: Antibacterial microdilution broth (EUCAST); type: cell-based; conditions: read-out: MIC Staphylococcus epidermidis
[10] = test system: Enterococcus faecalis CCM 4224 (ATCC 29212); experiment: Antibacterial microdilution broth (EUCAST); type: cell-based; conditions: read-out: MIC Enterococcus faecalis
[11] = test system: Escherichia coli CCM 3954 (ATCC 25922); experiment: Antibacterial microdilution broth (EUCAST); type: cell-based; conditions: Escherichia coli, read-out: MIC Escherichia coli
[12] = test system: Klebsiella pneumoniae CCM 4415 (ATCC 10031); experiment: Antibacterial microdilution broth (EUCAST); type: cell-based; conditions: Klebsiella pneumoniae, read-out: MIC Klebsiella pneumoniae
[13] = test system: Acinetobacter baumannii DSM 30007 (ATCC 19606); experiment: Antibacterial microdilution broth (EUCAST); type: cell-based; conditions: read-out: MIC Acinetobacter baumannii
[14] = test system: Pseudomonas aeruginosa CCM 3955 (ATCC 27853); experiment: Antibacterial microdilution broth (EUCAST); type: cell-based; conditions: read-out: MIC Pseudomonas aeruginosa
[15] = test system: Candida albicans CCM 8320 (ATCC 24433); experiment: Antifungal microdilution broth (EUCAST); type: cell-based; conditions: Candida albicans, read-out: MIC Candida albicans
[16] = test system: Candida krusei CCM 8271 (ATCC 6258); experiment: Antifungal microdilution broth (EUCAST); type: cell-based; conditions: Pichia kudriavzevii, read-out: MIC Candida krusei
[17] = test system: Candida parapsilosis CCM 8260 (ATCC 22019); experiment: Antifungal microdilution broth (EUCAST); type: cell-based; conditions: Lodderomyces parapsilosis, read-out: MIC Candida parapsilosis
[18] = test system: Candida tropicalis CCM 8264 (ATCC 750); experiment: Antifungal microdilution broth (EUCAST); type: cell-based; conditions: read-out: MIC Candida tropicalis
[19] = test system: Aspergillus fumigatus ATCC 204305; experiment: Antifungal microdilution broth (EUCAST); type: cell-based; conditions: Aspergillus fumigatus, read-out: MIC Aspergillus fumigatus
[20] = test system: Aspergillus flavus CCM 8363; experiment: Antifungal microdilution broth (EUCAST); type: cell-based; conditions: Aspergillus flavus, read-out: MIC Aspergillus flavus
[21] = test system: Lichtheimia corymbifera CCM 8077; experiment: Antifungal microdilution broth (EUCAST); type: cell-based; conditions: Lichtheimia corymbifera, read-out: MIC Lichtheimia corymbifera
[22] = test system: Trichophyton interdigitale CCM 8377 (ATCC 9533); experiment: Antifungal microdilution broth (EUCAST); type: cell-based; conditions: Trichophyton interdigitale, read-out: MIC Trichophyton interdigitale
HepG2 cell line = experiment: Cytotoxicity screening, CellTiter 96 assay; conditions: Homo sapiens, HepG2, 24 h, read-out: IC50 HepG2
Mtb laboratory ID IZAK = type: cell-based, Mycobacterium tuberculosis; conditions: for Susceptibility: CLSI breakpoints 2020
Mtb laboratory ID MATI = type: cell-based, Mycobacterium tuberculosis; conditions: for Susceptibility: CLSI breakpoints 2021
[23] = Middlebrook 7H9, resazurin, recalculated from µg/mL, read-out: MIC Mtb H37Ra

Work on `O=C(Nc1ccc2c(c1)B(O)OC2)c1nc2ccccc2[nH]c1=O` [Compound 18, N-(1-hydroxy-1,3-dihydrobenzo[c][1,2]oxaborol-6-yl)-3-oxo-3,4-dihydroquinoxaline-2-carboxamide] yielded an MIC ([1]; read-out: MIC Mtb H37Ra, Middlebrook 7H9, resazurin, recalculated from µg/mL) greater than 1850 µM, an MIC ([2]; pH 6.6, read-out: MIC Mtb H37Rv, MABA, Middlebrook 7H9 pH 6.6, recalculated from µg/mL) greater than 311 µM and an MIC [3] greater than 1850 µM. For the same molecule, the MIC ([4]; Mycobacterium avium) was 48.7 µM (≈ 15.6 µg/mL), the MIC [5] was 24.3 µM (≈ 7.81 µg/mL) and the MIC [6] was 24.3 µM (≈ 7.81 µg/mL). It also gave an MIC ([7]; 24h incubation) greater than 500 µM, an MIC ([7]; 48h incubation) greater than 500 µM and an MIC ([8]; 24 h) greater than 500 µM. For the same molecule, the MIC ([8]; 48 h) was greater than 500 µM, the MIC ([9]; 24h incubation) was greater than 500 µM and the MIC ([9]; 48h incubation) was greater than 500 µM. It also gave an MIC ([10]; 24h incubation) greater than 500 µM, an MIC ([10]; 48h incubation) greater than 500 µM and an MIC ([11]; 24h incubation) greater than 500 µM. For the same molecule, the MIC ([11]; 48h incubation) was greater than 500 µM, the MIC ([12]; 24h incubation) was greater than 500 µM and the MIC ([12]; 48h incubation) was greater than 500 µM. For the same molecule, the MIC ([13]; 24h incubation) was greater than 500 µM, the MIC ([13]; 48h incubation) was greater than 500 µM and the MIC ([14]; 24h incubation) was greater than 500 µM. For the same molecule, the MIC ([14]; 48h incubation) was greater than 500 µM, the MIC ([15]; 24h incubation) was greater than 125 µM and the MIC ([15]; 48h incubation) was greater than 125 µM. For the same molecule, the MIC ([16]; 24h incubation) was greater than 125 µM, the MIC ([16]; 48h incubation) was greater than 125 µM and the MIC ([17]; 24h incubation) was greater than 125 µM. For the same molecule, the MIC ([17]; 48h incubation) was greater than 125 µM, the MIC ([18]; 24h incubation) was greater than 125 µM and the MIC ([18]; 48h incubation) was greater than 125 µM. The MIC ([19]; ATCC204305, 24h incubation) was greater than 125 µM, the MIC ([19]; ATCC204305, 48h incubation) was greater than 125 µM and the MIC ([20]; CCM8363, 24h incubation) was greater than 125 µM. It also gave an MIC ([20]; CCM8363, 48h incubation) greater than 125 µM, an MIC ([21]; CCM8077, 24h incubation) greater than 125 µM and an MIC ([21]; CCM8077, 48h incubation) greater than 125 µM. For the same molecule, the MIC ([22]; 72h incubation) was greater than 125 µM, the MIC ([22]; 120h incubation) was greater than 125 µM and the melting point was 348.9 to 350.2 °C (dec.). For the same molecule, the IC50 (HepG2 cell line) was 244 µM.
`O=C(Nc1ccc2c(c1)B(O)OC2)c1ccc2ccccc2n1` [Compound 19, N-(1-hydroxy-1,3-dihydrobenzo[c][1,2]oxaborol-6-yl)quinoline-2-carboxamide] gave an MIC [1, 23] of 206 µM (≈ 62.5 µg/mL), an MIC ([2]; pH 6.6, MABA, Middlebrook 7H9 pH 6.6, recalculated from µg/mL, read-out: MIC Mtb H37Rv) of 82.2 µM (≈ 25 µg/mL) and an MIC [3] of 206 µM (≈ 62.5 µg/mL). It also gave an MIC [4] of 25.68 µM (≈ 7.81 µg/mL), an MIC ([4]; Mycobacterium avium) of 25.6 µM (≈ 7.78 µg/mL) and an MIC [5] of 25.7 µM (≈ 7.81 µg/mL). For the same molecule, the MIC [6] was 25.7 µM (≈ 7.81 µg/mL), the MIC ([7]; 24 h) was 125 µM (≈ 38 µg/mL) and the MIC ([7]; 48 h) was 125 µM (≈ 38 µg/mL). The MIC ([8]; 24 h) was greater than 125 µM, the MIC ([8]; 48 h) was greater than 125 µM and the MIC ([9]; 24 h) was greater than 125 µM. For the same molecule, the MIC ([9]; 48 h) was greater than 125 µM, the MIC ([10]; 24 h) was greater than 125 µM and the MIC ([10]; 48 h) was greater than 125 µM. The MIC ([11]; 24 h) was greater than 125 µM, the MIC ([11]; 48 h) was greater than 125 µM and the MIC ([12]; 24 h) was greater than 125 µM. It also gave an MIC ([12]; 48 h) greater than 125 µM, an MIC ([13]; 24 h) greater than 125 µM and an MIC ([13]; 48 h) greater than 125 µM. For the same molecule, the MIC ([14]; 24 h) was greater than 125 µM, the MIC ([14]; 48 h) was greater than 125 µM and the MIC ([15]; 24 h) was greater than 125 µM. For the same molecule, the MIC ([15]; 48 h) was greater than 125 µM, the MIC ([16]; 24 h) was greater than 125 µM and the MIC ([16]; 48 h) was greater than 125 µM. For the same molecule, the MIC ([17]; 24 h) was greater than 125 µM, the MIC ([17]; 48 h) was greater than 125 µM and the MIC ([18]; 24 h) was greater than 125 µM. The MIC ([18]; 48 h) was greater than 125 µM, the MIC ([19]; ATCC204305, 24 h) was greater than 125 µM and the MIC ([19]; ATCC204305, 48 h) was greater than 125 µM. For the same molecule, the MIC ([20]; CCM8363, 24 h) was greater than 125 µM, the MIC ([20]; CCM8363, 48 h) was greater than 125 µM and the MIC ([21]; CCM8077, 24 h) was greater than 125 µM. It also gave an MIC ([21]; CCM8077, 48 h) greater than 125 µM, an MIC ([22]; 72 h) greater than 125 µM and an MIC ([22]; 120 h) greater than 125 µM. For the same molecule, the melting point was 201 to 203.1 °C and the IC50 (HepG2 cell line) was 467 µM.
In the case of `NC(=O)c1cnccn1` [PZA, pyrazinamide], the Concentration (Mtb laboratory ID IZAK; strain IZAK, CLSI 2020) is reported as greater than 129.96 µM, the Susceptibility (Mtb laboratory ID IZAK; strain IZAK) is reported as “resistant” and the Concentration (Mtb laboratory ID MATI; strain MATI, CLSI 2021) is reported as greater than 1039.70 µM. The Susceptibility (Mtb laboratory ID MATI; strain MATI) was “resistant”.
`CO[C@H]1/C=C/O[C@@]2(C)Oc3c(C)c(O)c4c(O)c(c(/C=N/N5CCN(C)CC5)c(O)c4c3C2=O)NC(=O)/C(C)=C\C=C\[C@H](C)[C@H](O)[C@@H](C)[C@@H](O)[C@@H](C)[C@H](OC(C)=O)[C@@H]1C` [RIF, rifampicin, reference compound] gave an MIC [1, 23] of 0.00759 µM (≈ 0.00625 µg/mL), an MIC ([3]; Middlebrook 7H9, resazurin) of 0.06 µM (≈ 0.0494 µg/mL) and an MIC ([4]; Mycobacterium avium) of 0.08 µM (≈ 0.0658 µg/mL). It also gave an MIC [5] of 0.47 µM (≈ 0.387 µg/mL), an MIC [6] of 15.2 µM (≈ 12.5 µg/mL) and a Concentration (Mtb laboratory ID IZAK) greater than 9.72 µM. The Susceptibility (Mtb laboratory ID IZAK; strain IZAK) was “resistant”, the Concentration (Mtb laboratory ID MATI) was greater than 9.72 µM and the Susceptibility (Mtb laboratory ID MATI; strain MATI) was “resistant”.
In the case of `[H]/N=C(/N)N[C@H]1[C@H](O)[C@@H](O)[C@H](O[C@@H]2O[C@@H](C)[C@](O)(C=O)[C@H]2O[C@@H]2O[C@@H](CO)[C@H](O)[C@@H](O)[C@@H]2NC)[C@@H](N/C(N)=N\[H])[C@@H]1O` [STM, streptomycin], the Concentration (Mtb laboratory ID IZAK; strain IZAK, CLSI 2020) is reported as 6.88 µM, the Susceptibility (Mtb laboratory ID IZAK; strain IZAK) is reported as “resistant” and the Concentration (Mtb laboratory ID MATI; strain MATI, CLSI 2021) is reported as greater than 27.51 µM. For the same molecule, the Susceptibility (Mtb laboratory ID MATI; strain MATI) was “resistant”.
